The record followed here is patent publication US20230416196A1, “DIMER OF BIGUANIDINES AND THEIR THERAPEUTIC USES” (INSTITUT CURIE, priority 2020, published 2023).

Assay [1] deals with EMT induction (E-cadherin, Fibronectin, Slug). In words: Western blot of epithelial and mesenchymal markers upon EMT induction. The conditions noted are these: TGF-β or OSM; FIG. 8D. In kind it is cell-based. As to the method: Cell culture. MCF7 (ATCC) cells, DU-145 (ATCC) cells and FC1245 cells were cultured in Dulbecco's Modified Eagle Medium GlutaMAX (DMEM, ThermoFisher Scientific, 61965059) supplemented with 10% Fetal Bovine Serum (FBS, Gibco, 10270-106) and Penicillin-Streptomycin mixture (BioWhittaker/Lonza, DE17-602E) unless stated otherwise. Primary lung circulating tumor cells (Celprogen, 36107-34CTC, Lot 219411) were grown using stem cell complete media (Celprogen, M36102-29PS) until the third passage. Circulating cancer cells were grown in stem cell ECM T75-flasks (Celprogen, E36102-29-T75) and ECM 6-well plates (Celprogen, E36102-29-6Well). […]
Western Blotting. […] Proteins were solubilized in 2× Laemmli buffer containing benzonase (VWR, 70664-3, 1:100), extracts were incubated at 37° C. for 1 h, and quantified using a NanoDrop 2000 spectrophotometer (ThermoFisher Scientific). […] Antigens were detected using the SuperSignal West Pico PLUS chemiluminescent detection kits (ThermoFisher Scientific, 34580 and 34096). Signals were recorded using a Fusion Solo S Imaging System (Vilber) and quantified as indicated using ImageJ. […]
In general terms: A western blot detects proteins with antibodies after separation by electrophoresis.

Another assay relates to U937 cells. In words: Cell viability assay (CellTiter-Blue) on lymphoma cell line U937. Type of assay: cell-based. The note with it: Homo sapiens, U-937, 72 h treatment. As to the method:
Cell culture. U-937 cells were grown in an incubator equilibrated at 37° C. with 5% CO2, grown to confluence and split with Trypsin/EDTA (Gibco, […]01) once or twice a week according to confluence. U-937 (ATCC, HTB-132) were cultured in RPMI 1640 GLUTAMAX (ThermoFisher Scientific, 61870044) supplemented with 10% Fetal Bovine Serum (FBS, Gibco, 10270-106) and Penicillin-Streptomycin mixture (BioWhittaker/Lonza, DE17-602E). […] Peripheral blood samples were collected from distinct healthy donors (Etablissement Français du Sang). Pan monocytes were isolated by negative magnetic sorting using microbeads according to the manufacturer's instructions (Miltenyi Biotec, 130-096-537), and cultured in RPMI 1640 supplemented with glutamine (Thermo Fisher Scientific, 61870010), 10% fetal bovine serum and exposed to granulocyte-macrophage colony-stimulating factor (GM-CSF, Miltenyi Biotec, 130-093-866, 100 ng/mL) to induce differentiation into macrophages (MDM). […] Cell viability assay (IC50). Cell viability assay was carried out by plating 1000 cells/well in 96-well plates. Cells were treated for 72 h in a range between to 25 nM and […] using serial dilutions. The inventors followed the manufacturer's protocol. In brief, CellTiter-Blue® reagent (G8081, Promega) was added after 72 h treatment and cells were incubated for 3 h before recording fluorescence intensities (λex. 560/20 nm; λem. 590/10 nm) using a Perkin Elmer Wallac 1420 Victor2 Microplate Reader.

For another assay, the system named is lymphocytes (CD4, CD8). Description: Activation of CD4 and CD8 lymphocytes (CD25, CD69 flow cytometry). The conditions noted are these: LCC-12 10 μM, 48 h, CD3/CD28 activation; FIG. 6A-B. In kind it is cell-based, human. As to the method:
CD4 Lymphocytes. Peripheral blood samples were collected from healthy donors (Etablissement Français du Sang). CD4 lymphocytes were isolated by negative magnetic sorting using microbeads according to the manufacturer's instructions (Miltenyi Biotec, 130-096-533) and cultured in RPM11640 supplemented with glutamine and 10% fetal bovine serum. CD4 lymphocytes were activated for 48 h using CD3/CD28 antibodies (2.5 μg/mL), in presence of LCC-12 (10 μM). The activation status of the lymphocytes was assessed by measuring CD25 and CD69 surface markers by flow cytometry.
CD8 Lymphocytes. Peripheral blood samples were collected from healthy donors (Etablissement Français du Sang). CD8 lymphocytes were isolated by negative magnetic sorting using microbeads according to the manufacturer's instructions (Miltenyi Biotec, 130-096-495) and cultured in RPM11640 supplemented with glutamine and 10% fetal bovine serum. CD8 lymphocytes were activated 48 h using CD3/CD28 antibodies (2.5 μg/mL), in presence of LCC-12 (10 μM). The activation status of the lymphocytes was assessed by measuring CD25 and CD69 surface markers by flow cytometry.

In general, IC50 refers to the concentration at which inhibition is half-maximal. High values mean weaker potency, low ones greater potency. Regarding `N=C(N)NC(=N)NCCCCCCCCCCCCNC(=N)NC(=N)N` [LCC-12, lipophilic copper clamp C12], the “EMT induction (E-cadherin, Fibronectin, Slug levels)” value in assay [1] is “antagonized EMT induction”. The same compound came in with an IC50 with U937 cells of 2 µM. For the same compound, the activation of lymphocytes result with lymphocytes (CD4, CD8) is on record as “decreases the activation”.
